Source: patent US20250268876A1, “TREATMENT OF HIDRADENITIS SUPPURATIVA WITH ORISMILAST” (UNION THERAPEUTICS A/S, priority 2021, published 2025)
“And” between values parts separate entries of the source, which are not always exact repeats. Equal entries are not always repeated. Where two headings read alike, the source gives them in different places. Marks after values point to notes of the source that are not given here.

Tests used:
[1] = test system: TNF-α secretion from human whole blood; test: Whole blood TNF-α secretion assay (LPS or SEB); assay type: cell-based
[2] = test system: Hidradenitis suppurativa (HS); details: two phase II studies, moderate HS; none of the patients in the placebo group; cited from earlier work
TNF-α = test: LPS-induced TNF-α in ferrets after single oral administration; details: oral 1 and 3 mg/kg; 1 hour after LPS (3 mg/kg ip)
[3] = test system: conscious, unrestrained ferret; details: in vivo, po, 1 mg/kg
Emesis study in ferrets = details: ferret, in vivo, po
[4] = Homo sapiens, 24 h, SEB 1 μg/mL, 24 hours, donor 1, read-out: Emax
[5] = Homo sapiens, 48 h, SEB 1 μg/mL, 48 hours, donor 1, read-out: Emax
[6] = Homo sapiens, 48 h, SEB 1 μg/mL, 48 hours, donor 2, read-out: Emax

CCOc1cc([C@@H](CS(C)(=O)=O)N2C(=O)c3cccc(NC(C)=O)c3C2=O)ccc1OC [Apremilast]
Emax ([1]; Homo sapiens, 24 h, LPS 1 μg/mL, 24 hours, donor 1, Emax defined as TNF-α level in un-stimulated wells, read-out: Emax): 74%
EC50 ([1]; Homo sapiens, 24 h, LPS 1 μg/mL, 24 hours, donor 1, read-out: EC50): 210 nM
EC50 ([1]; Homo sapiens, 24 h, LPS 1 μg/mL, 24 hours, donor 2, read-out: EC50): 283 nM
Emax ([1]; Homo sapiens, 24 h, LPS 1 μg/mL, 24 hours, donor 2, read-out: Emax): 79%
Emax [1, 4]: 98%
EC50 ([1]; Homo sapiens, 24 h, SEB 1 μg/mL, 24 hours, donor 2, read-out: EC50): 620 nM
Emax ([1]; Homo sapiens, 24 h, SEB 1 μg/mL, 24 hours, donor 2, read-out: Emax): 65%
EC50 ([1]; Homo sapiens, 48 h, LPS 1 μg/mL, 48 hours, donor 1, read-out: EC50): 277 nM
Emax ([1]; Homo sapiens, 48 h, LPS 1 μg/mL, 48 hours, donor 1, read-out: Emax): 77%
EC50 ([1]; Homo sapiens, 48 h, LPS 1 μg/mL, 48 hours, donor 2, read-out: EC50): 364 nM
Emax ([1]; Homo sapiens, 48 h, LPS 1 μg/mL, 48 hours, donor 2, read-out: Emax): 78%
EC50 ([1]; Homo sapiens, 48 h, SEB 1 μg/mL, 48 hours, donor 1, read-out: EC50): 155 nM
Emax [1, 5]: 97%
EC50 ([1]; Homo sapiens, 48 h, SEB 1 μg/mL, 48 hours, donor 2, read-out: EC50): 573 nM
Emax [1, 6]: 80%
EC50 ([1]; Homo sapiens, mean of 8 determinations (LPS and SEB, 24 and 48 hours, 2 donors), read-out: Geometric mean of EC50 values across different assay parameters): 287 nM and 0.132 µg/mL
treated patients with a positive HS clinical response (HiSCR) [2]: more than 50%

C[C@@H]1CCN(C(=O)CC#N)C[C@@H]1N(C)c1ncnc2[nH]ccc12 [Tofacitinib]
Emax [1, 4]: 98%
Emax [1, 5]: 95%
Emax [1, 6]: 102%
Effect on TNF-α secretion (in words) ([1]; LPS 1 μg/mL, 24 hours): Stimulation
Effect on TNF-α secretion (in words) ([1]; LPS 1 μg/mL, 48 hours): Stimulation
Emax ([1]; SEB 1 μg/mL, 24 hours, donor 2): 100*

O=C(Nc1c(Cl)cncc1Cl)c1ccc(OC(F)F)c(OCC2CC2)c1 [Roflumilast]
increase of TNF-α levels observed at 1 hour (TNF-α): attenuated in a dose-related manner
Emetogenic properties [3]: absent
NOAEL at 3 h (Emesis study in ferrets): 1 mg/kg

O=C(Nc1c(Cl)c[n+]([O-])cc1Cl)c1ccc(OC(F)F)c(OCC2CC2)c1 [Roflumilast N-oxide]
Emax ([1]; LPS 1 μg/mL, 24 hours, donor 1, Emax defined as TNF-α level in un-stimulated wells): 72
EC50 ([1]; LPS 1 μg/mL, 24 hours, donor 1, read-out: EC50): 23.4 nM
Emax ([1]; LPS 1 μg/mL, 24 hours, donor 2): 79
EC50 ([1]; LPS 1 μg/mL, 24 hours, donor 2, read-out: EC50): 24 nM
Emax ([1]; LPS 1 μg/mL, 48 hours, donor 1): 75
EC50 ([1]; LPS 1 μg/mL, 48 hours, donor 1, read-out: EC50): 38.6 nM
Emax ([1]; LPS 1 μg/mL, 48 hours, donor 2): 78
EC50 ([1]; LPS 1 μg/mL, 48 hours, donor 2, read-out: EC50): 35 nM
Emax ([1]; SEB 1 μg/mL, 24 hours, donor 1): 97
EC50 ([1]; SEB 1 μg/mL, 24 hours, donor 1, read-out: EC50): 8.69 nM
Emax ([1]; SEB 1 μg/mL, 24 hours, donor 2): 66
EC50 ([1]; SEB 1 μg/mL, 24 hours, donor 2, read-out: EC50): 35.6 nM
Emax ([1]; SEB 1 μg/mL, 48 hours, donor 1): 97
EC50 ([1]; SEB 1 μg/mL, 48 hours, donor 1, read-out: EC50): 4.77 nM
Emax ([1]; SEB 1 μg/mL, 48 hours, donor 2): 80
EC50 ([1]; SEB 1 μg/mL, 48 hours, donor 2, read-out: EC50): 33.4 nM
Geometric mean of EC50 values across different assay parameters ([1]; mean of 8 determinations (LPS and SEB, 24 and 48 hours, 2 donors)): 8.80 ng/mL
EC50 ([1]; mean of 8 determinations (LPS and SEB, 24 and 48 hours, 2 donors), read-out: Geometric mean of EC50 values across different assay parameters): 21 nM
